Measured values reported in patent US8937039B2, “Peptide-based peroxidase inhibitors and methods of using same” (The Medical College of Wisconsin, Inc., priority 2009, dated 2015).
Residues, ends and D or L forms follow the SMILES beside them.

Assays:
MPO = target: T1, MPO (Homo sapiens, UniProt P05164); assay: MPO-mediated LDL malondialdehyde (MDA) formation; assay type: biochemical; set-up: purchased Lee Biosolutions (St. Louis, Mo.); details: increasing concentrations; 37° C., 4 h
T1 sequence (P05164 49-745): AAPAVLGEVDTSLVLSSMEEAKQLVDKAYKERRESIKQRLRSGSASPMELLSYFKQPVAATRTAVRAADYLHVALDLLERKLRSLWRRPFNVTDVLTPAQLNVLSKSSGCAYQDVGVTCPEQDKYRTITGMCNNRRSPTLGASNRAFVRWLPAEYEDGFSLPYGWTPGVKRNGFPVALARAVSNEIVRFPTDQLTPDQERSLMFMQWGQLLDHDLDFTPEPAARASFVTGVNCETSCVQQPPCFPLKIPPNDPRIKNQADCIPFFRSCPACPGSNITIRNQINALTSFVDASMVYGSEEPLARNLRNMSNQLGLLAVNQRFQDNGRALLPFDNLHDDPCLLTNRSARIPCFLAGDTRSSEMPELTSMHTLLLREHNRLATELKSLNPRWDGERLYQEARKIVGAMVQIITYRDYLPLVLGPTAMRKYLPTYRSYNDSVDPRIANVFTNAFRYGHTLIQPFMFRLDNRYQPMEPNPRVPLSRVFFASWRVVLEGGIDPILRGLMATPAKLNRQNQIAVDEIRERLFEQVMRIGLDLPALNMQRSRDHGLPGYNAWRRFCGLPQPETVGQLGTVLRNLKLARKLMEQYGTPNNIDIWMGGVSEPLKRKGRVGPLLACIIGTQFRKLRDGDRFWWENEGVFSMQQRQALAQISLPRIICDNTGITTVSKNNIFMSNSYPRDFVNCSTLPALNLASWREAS
Protocol: MPO-mediated LDL Malondialdehyde (MDA) Formation: Reaction mixtures contained LDL (0.5 mg/mL), NaNO2 (50 μM), H2O2 (50 μM), MPO (50 nM) and increasing concentrations of KYC in a phosphate buffer (100 mM, pH 7.4) containing DTPA (100 μM). After incubation at 37° C. for 4 h, the reactions were stopped by addition of catalase (2,000 units/mL). The formation of MDA was determined according to a published procedure. Briefly, incubation mixtures (containing 25 mM BHT) were adjusted to pH 1.5 and incubated at 60° C. for 80 min to hydrolyze the Schiff Bases formed from MDA and protein. The samples were mixed with 3-fold volume of N-methyl-2-phenylindole (13.4 mM in acetonitrile/methanol (3:1)). After centrifugation (13000 g, 5 min) 330 μL of the supernatants were mixed with 57.5 μL of concentrated HCl and incubated at 45° C. for another 60 min. Finally, after centrifugation (13000 g, 5 min), total MDA in the samples was determined from the absorbance at 586 nm using a UV-Vis spectrophotometer (Agilent Model 8453).

SCD mice [1] = assay: Vasodilatation of pressurized facialis arteries from SCD mice treated in vivo; set-up: species or system mouse; details: KYC, three weeks
Protocol: Murine Model of Sickle Cell Disease. Mice treated with KYC in vivo. SCD mice were treated with KYC (intraperitoneal injection: IP 0.3 mg/kg/d) or with PBS (IP 100 μL) for 3 weeks. Anesthesia was induced with Ketamine (100 mg/kg)+Xylazine (10 mg/kg) cocktail (ip) and then sacrificed by exsanguination. Facialis arteries were atraumatically dissected and maintained in cooled MOPS solution (in mM: NaCl 145, KCL 4.7, CaCl2 2, NaH2PO4 1.2, MgSO4, 1.2, pyruvate 2, EDTA 0.02, MOPS 3.0, and glucose 5.0, at pH 7.4). Vessels were then submerged in a MOPS bath, mounted on MOPS-containing glass capillary tubes, internally pressurized (60 mmHg), and warmed to 37° C. Internal vascular diameters were measured with a calibrated video-microscope (Boeckeler). After the vessel was allowed to acclimate to 37° C. (approximately 30 min), the diameter was measured and recorded (Dmax). […] A control dose-response curve using acetylcholine (ACh, 10^−7-10^−4 M) was performed and vessel diameter recorded. […] Vasodilation to papaverine ([…]) was determined after all treatments to ensure smooth muscle viability. Vasodilation was calculated as a percent of maximal vessel diameter change.
Vasodilatation. […] Physiological responses to increasing concentrations of acetylcholine (ACh) were determined by videomicroscopy as previously described.

SCD mice [2] = assay: Vessel wall thickness of facialis arteries of treated SCD mice; assay type: in vivo, mouse; details: KYC three weeks; P=0.10
Protocol: Vessel Wall Thickness. After completing the vasodilatation studies, the pressurized vessels were maximally dilated by addition of papaverine (10^−4 mol/L, 4 min), and outside and inside diameters recorded. An index of wall thickness was calculated using the following formula; ([…]/2)/outside diameter, as previously described.

MPO-mediated MDA formation in LDL (in words) (MPO): dose-dependently inhibited
SMILES: CC(=O)N[C@@H](CCCCN)C(=O)N[C@@H](Cc1ccc(O)cc1)C(=O)N[C@@H](CS)C(N)=O [KYC, N-acetyl Lysyltyrosylcysteine Amide] (Ac-Lys-Tyr-Cys-NH2)
Endothelium- and eNOS-dependent vasodilatation (in words) (SCD mice [1]): dramatically increases | Vessel wall thickness (in words) (SCD mice [2]): reduces vessel wall thickness
